In US20260232767A1, “INTERLEUKIN-23 RECEPTOR ANTAGONIST PEPTIDES FOR USE IN THE TREATMENT OF PSORIASIS” (Janssen Pharmaceutica NV, priority 2023, published 2026):
Read-outs that look alike come from different tables or passages of the source.

Experiment: Plasma concentrations (PK), Example 1
Format: in vivo, human
Method: For QD dosing, peak concentration was defined as any PK sample taken between 0.25 to <6 hours after the last morning dose and trough concentration was at least 20 hours after the last morning dose. For BID dosing, peak concentration was defined as any PK sample taken between 0.25 to <4 hours after the last dose and trough concentration was at least 8 hours after the last dose.

Structure (SMILES): CC(=O)NCCCC[C@@H]1NC(=O)[C@H](Cc2c[nH]c3c(C)cccc23)NC(=O)[C@H]([C@@H](C)O)NC(=O)[C@H](CC(N)=O)NC(=O)[C@@H](NC(C)=O)C(C)(C)SSC(C)(C)[C@@H](C(=O)N[C@@H](Cc2ccc(OCCN)cc2)C(=O)N[C@@H](Cc2ccc3ccccc3c2)C(=O)NC2(C(=O)N[C@@H](CCC(=O)O)C(=O)N[C@@H](CC(N)=O)C(=O)N[C@@H](Cc3cccnc3)C(=O)N(C)CC(N)=O)CCOCC2)NC1=O [IL-23 receptor antagonist peptide, Ac-[Pen]*-N-T-[W(7-Me)]-[Lys(Ac)]-[Pen]*-Phe[4-(2-aminoethoxy)]-[2-Nal]-[THP]-E-N-[3-Pal]-Sarc-NH2 (*[Pen]-[Pen]* formdisulfidebond)]
- Number of subjects with plasma concentration below LLOQ (25 mg BID, Week 2, Intermediate): 0
- Number of subjects with plasma concentration below LLOQ (25 mg BID, Week 2, Peak): 0
- Number of subjects with plasma concentration below LLOQ (25 mg BID, Week 2, Trough): 1 (100.0%)
- Number of subjects with plasma concentration below LLOQ (25 mg BID, Week 4, Intermediate): 0
- Number of subjects with plasma concentration below LLOQ (25 mg BID, Week 4, Peak): 0
- Number of subjects with plasma concentration below LLOQ (25 mg BID, Week 4, Trough): 1 (100.0%)
- Number of subjects with plasma concentration below LLOQ (25 mg BID, Week 8, Intermediate): 0
- Number of subjects with plasma concentration below LLOQ (25 mg BID, Week 8, Peak): 1 (50.0%)
- Number of subjects with plasma concentration below LLOQ (25 mg BID, Week 8, Trough): 2 (100.0%)
- Number of subjects with plasma concentration below LLOQ (25 mg BID, Week 12, Intermediate): 0
- Number of subjects with plasma concentration below LLOQ (25 mg BID, Week 12, Peak): 0
- Number of subjects with plasma concentration below LLOQ (25 mg BID, Week 12, Trough): 2 (100.0%)
- Number of subjects with plasma concentration below LLOQ (25 mg BID, Week 16, Intermediate): 0
- Number of subjects with plasma concentration below LLOQ (25 mg BID, Week 16, Peak): 0
- Plasma concentration, Median (25 mg BID, Week 16, Peak): 0.796 ng/mL
- Number of subjects with plasma concentration below LLOQ (25 mg BID, Week 16, Trough): 1 (100.0%)
- Plasma concentration, Median (25 mg BID, Week 16, Trough): 0.134 ng/mL
- Number of subjects with plasma concentration below LLOQ (25 mg QD, Week 1, Intermediate): 0
- Number of subjects with plasma concentration below LLOQ (25 mg QD, Week 1, Peak): 0
- Number of subjects with plasma concentration below LLOQ (25 mg QD, Week 1, Trough, LLOQ 0.02 ng/mL): 3 (100.0%)
- Number of subjects with plasma concentration below LLOQ (25 mg QD, Week 2, Intermediate): 0
- Number of subjects with plasma concentration below LLOQ (25 mg QD, Week 2, Peak): 3 (100.0%)
- Number of subjects with plasma concentration below LLOQ (25 mg QD, Week 2, Trough): 0
- Number of subjects with plasma concentration below LLOQ (25 mg QD, Week 4, Intermediate): 0
- Number of subjects with plasma concentration below LLOQ (25 mg QD, Week 4, Peak): 0
- Number of subjects with plasma concentration below LLOQ (25 mg QD, Week 4, Trough): 3 (100.0%)
- Number of subjects with plasma concentration below LLOQ (25 mg QD, Week 8, Intermediate): 0
- Number of subjects with plasma concentration below LLOQ (25 mg QD, Week 8, Peak): 0)
- Number of subjects with plasma concentration below LLOQ (25 mg QD, Week 8, Trough): 2 (100.0%)
- Number of subjects with plasma concentration below LLOQ (25 mg QD, Week 12, Intermediate): 0
- Number of subjects with plasma concentration below LLOQ (25 mg QD, Week 12, Peak): 0
- Number of subjects with plasma concentration below LLOQ (25 mg QD, Week 12, Trough): 6
- Number of subjects with plasma concentration below LLOQ (25 mg QD, Week 16, Intermediate): 0
- Number of subjects with plasma concentration below LLOQ (25 mg QD, Week 16, Peak): 2
- Plasma concentration, Median (25 mg QD, Week 16, Peak): 0.295 ng/mL
- Number of subjects with plasma concentration below LLOQ (25 mg QD, Week 16, Trough): 2
- Plasma concentration, Median (25 mg QD, Week 16, Trough): 0.057 ng/mL
- Number of subjects with plasma concentration below LLOQ (50 mg QD, Week 2, Intermediate): 0
- Number of subjects with plasma concentration below LLOQ (50 mg QD, Week 2, Peak): 1 (100.0%)
- Number of subjects with plasma concentration below LLOQ (50 mg QD, Week 2, Trough): 0
- Number of subjects with plasma concentration below LLOQ (50 mg QD, Week 12, Intermediate): 0
- Number of subjects with plasma concentration below LLOQ (50 mg QD, Week 12, Peak): 0
- Number of subjects with plasma concentration below LLOQ (50 mg QD, Week 12, Trough): 2 (100.0%)
- Number of subjects with plasma concentration below LLOQ (50 mg QD, Week 16, Intermediate): 0
- Number of subjects with plasma concentration below LLOQ (50 mg QD, Week 16, Peak): 0
- Plasma concentration, Median (50 mg QD, Week 16, Peak): 0.917 ng/mL
- Number of subjects with plasma concentration below LLOQ (50 mg QD, Week 16, Trough): 3 (100.0%)
- Plasma concentration, Median (50 mg QD, Week 16, Trough): 0.089 ng/mL
- Number of subjects with plasma concentration below LLOQ (100 mg BID, Week 16, Intermediate): 0
- Number of subjects with plasma concentration below LLOQ (100 mg BID, Week 16, Peak): 0
- Plasma concentration, Median (100 mg BID, Week 16, Peak): 1.970 ng/mL
- Number of subjects with plasma concentration below LLOQ (100 mg BID, Week 16, Trough): 1 (100.0%)
- Plasma concentration, Median (100 mg BID, Week 16, Trough): 0.451 ng/mL
- Number of subjects with plasma concentration below LLOQ (100 mg QD, Week 12, Intermediate): 1 (33.3%)
- Number of subjects with plasma concentration below LLOQ (100 mg QD, Week 12, Peak): 1 (33.3%)
- Number of subjects with plasma concentration below LLOQ (100 mg QD, Week 12, Trough): 1 (33.3%)
- Number of subjects with plasma concentration below LLOQ (100 mg QD, Week 16, Intermediate): 1 (33.3%)
- Number of subjects with plasma concentration below LLOQ (100 mg QD, Week 16, Peak): 0
- Plasma concentration, Median (100 mg QD, Week 16, Peak): 1.165 ng/mL
- Number of subjects with plasma concentration below LLOQ (100 mg QD, Week 16, Trough): 2 (66.7%)
- Plasma concentration, Median (100 mg QD, Week 16, Trough): 0.132 ng/mL
- Effect of body weight on systemic exposure (baseline body weight subgroups, through Week 16): not consistently evident that body weight has a major impact on systemic exposure
- Drug accumulation (median trough concentrations) (between Week 1 and 16): no apparent drug accumulation
- level at 672 h (human, plasma, oral, 25 mg, 25 mg BID, Week 4, Peak, read-out: Plasma concentration, Geometric Mean): 0.539 ng/mL
- level at 672 h (human, plasma, oral, 25 mg, 25 mg BID, Week 4, Peak, read-out: Plasma concentration, Mean): 0.655 ng/mL
- level at 672 h (human, plasma, oral, 25 mg, 25 mg BID, Week 4, Peak, read-out: Plasma concentration, Median): 0.52 ng/mL
- level at 1344 h (human, plasma, oral, 25 mg, 25 mg BID, Week 8, Intermediate, read-out: Plasma concentration, Geometric Mean): 0.092 ng/mL
- level at 1344 h (human, plasma, oral, 25 mg, 25 mg BID, Week 8, Intermediate, read-out: Plasma concentration, Mean): 0.092 ng/mL
- level at 1344 h (human, plasma, oral, 25 mg, 25 mg BID, Week 8, Intermediate, read-out: Plasma concentration, Median): 0.092 ng/mL
- level at 1344 h (human, plasma, oral, 25 mg, 25 mg BID, Week 8, Peak, read-out: Plasma concentration, Geometric Mean): 0.483 ng/mL
- level at 1344 h (human, plasma, oral, 25 mg, 25 mg BID, Week 8, Peak, read-out: Plasma concentration, Mean): 0.672 ng/mL
- level at 1344 h (human, plasma, oral, 25 mg, 25 mg BID, Week 8, Peak, read-out: Plasma concentration, Median): 0.545 ng/mL
- level at 1344 h (human, plasma, oral, 25 mg, 25 mg BID, Week 8, Trough, read-out: Plasma concentration, Geometric Mean): 0.151 ng/mL
- level at 1344 h (human, plasma, oral, 25 mg, 25 mg BID, Week 8, Trough, read-out: Plasma concentration, Mean): 0.184 ng/mL
- level at 1344 h (human, plasma, oral, 25 mg, 25 mg BID, Week 8, Trough, read-out: Plasma concentration, Median): 0.143 ng/mL
- level at 2016 h (human, plasma, oral, 25 mg, 25 mg BID, Week 12, Trough, read-out: Plasma concentration, Mean): 0.202 ng/mL
- level at 672 h (human, plasma, oral, 25 mg, 25 mg QD, Week 4, Peak, read-out: Plasma concentration, Geometric Mean): 0.469 ng/mL
- level at 672 h (human, plasma, oral, 25 mg, 25 mg QD, Week 4, Peak, read-out: Plasma concentration, Mean): 0.591 ng/mL
- level at 672 h (human, plasma, oral, 25 mg, 25 mg QD, Week 4, Peak, read-out: Plasma concentration, Median): 0.425 ng/mL
- level at 1344 h (human, plasma, oral, 25 mg, 25 mg QD, Week 8, Intermediate, read-out: Plasma concentration, Geometric Mean): 0.168 ng/mL
- level at 1344 h (human, plasma, oral, 25 mg, 25 mg QD, Week 8, Intermediate, read-out: Plasma concentration, Mean): 0.211 ng/mL
- level at 1344 h (human, plasma, oral, 25 mg, 25 mg QD, Week 8, Intermediate, read-out: Plasma concentration, Median): 0.177 ng/mL
- level at 1344 h (human, plasma, oral, 25 mg, 25 mg QD, Week 8, Peak, read-out: Plasma concentration, Geometric Mean): 0.284 ng/mL
- level at 1344 h (human, plasma, oral, 25 mg, 25 mg QD, Week 8, Peak, read-out: Plasma concentration, Mean): 0.443 ng/mL
- level at 1344 h (human, plasma, oral, 25 mg, 25 mg QD, Week 8, Peak, read-out: Plasma concentration, Median): 0.325 ng/mL
- level at 1344 h (human, plasma, oral, 25 mg, 25 mg QD, Week 8, Trough, read-out: Plasma concentration, Geometric Mean): 0.061 ng/mL
- level at 1344 h (human, plasma, oral, 25 mg, 25 mg QD, Week 8, Trough, read-out: Plasma concentration, Mean): 0.068 ng/mL
